The subject of assay [1] is NF-κB target genes (786-O cells). The experiment in a line: RT-qPCR of NF-κB target genes after NF-κB inhibitor, 786-O. The class given is cell-based, human. The conditions noted are these: 0.006 μM bortezomib or 0.6 µM Bay 11-7085, 24 hours. As for the experimental part: (§1) Colony formation of parental (WT) or PBRM1 knockout (KO) 786-O cells expressing shRNA against non-targeting control (NC), RELA, or NFKB1 cultured with a) 10% or b) 2% serum. c) Gene expression changes of NF-κB target genes in 786-O cells treated with 0.006 μM bortezomib (BTZ) or 0.6 µM Bay 11-7085 for 24 hours (n=3 technical replicates). * p-value<0.05 (two-sided t-test). […] A positive log fold change refers to gain in bortezomib treatment over DMSO. g) Colony formation of 786-O isogenic cells and h) NCC432 isogenic cells treated with bortezomib for a week. Tumor formation of isogenic 786-O cells (i) and NCC432 cells (j) treated with PBS control or 0.5 mg/kg bortezomib (BTZ) in NSG mice. (n=10 tumors per group for 786-O, and n=16 tumors for NCC432 PBS EV group and 12 tumors for NCC432 PBS PBRM1 group and 14 tumors for both NCC432 EV and PBRM1 BTZ groups). Data are presented as mean values+/−SEM. k) Model for the study.
Background: Real-time PCR tracks product formation cycle by cycle.

The test system of the next assay is 786-O cells. The assay is described as follows: Colony formation, 786-O isogenic cells. The conditions noted are these: 786-O with and without PBRM1, vs DMSO. In kind it is cell-based, human. Here is the method: as §1
Data are presented as median+/−25%. […] Data are presented as mean values+/−SD. e) Tornado plots of RELA and SMARCA4 ChIP-seq signals in parental 786-0 or PBRM1-KO 786-O cells treated with DMSO or 0.005 μM bortezomib for 9 hours. f) Kaplan-Meier curves of NSG mice bearing 786-O isogenic cells treated with PBRM1 control or 0.5 mg/kg bortezomib (WT: n=10 PBS arm, median survival=39 days; n=10 bortezomib arm, median survival=52 days, HR=4.1, p=3E-6, log rank test; KO: n=10 PBS arm, median survival=35 days, n=10 bortezomib arm, median survival=66 days, HR=4.1, p=3E-6, log rank test). g) Kaplan-Meier curves of NSG mice bearing NCC432 isogenic cells treated with PBRM1 control or 0.5 mg/kg bortezomib (EV: n=16 PBS arm, median survival=42 days; n=14 bortezomib arm, median survival=49 days, HR=2.5, p=0.0009, log rank test; PBRM1: n=12 PBS arm, median survival=55 days; n=14 bortezomib arm, median survival=58 days, HR=1.2, p=0.5, log rank test). h) 786-O PBRM1 WT or KO cells were screened against the high-specific SGC epigenetic probe collection and cell viability was measured by colony formation after 1 week of treatment relative to DMSO control. […]

For the next assay, the system named is IκBα / NF-κB. The conditions noted are these: cited from earlier work.
In assay [2] the test system is NF-κB target genes (786-O cells). The experiment in a line: RT-qPCR of NF-κB target genes after SMARCA2/4 ATPase inhibitor, 786-O. The class given is cell-based, human.
Assay [3] concerns NF-κB target genes (NCC432 cells). The assay is described as follows: RT-qPCR of NF-κB target genes after SMARCA2/4 ATPase inhibitor, NCC432. The class given is cell-based, human. An excerpt: Data are presented as mean values+/−SD. b) Colony formation of 786-O cells expressing shRNA against non-targeting control (NTC) or ARID2. c) Colony formation of 786-O cells expressing shRNA against non-targeting control (NTC) or SMARCA4. d) Immunoblotting and e) colony formation of NCC432 cells expressing shRNA against non-targeting control (NTC) or ARID2 (n=3 biological replicates). Data are presented as mean values+/−SD. * p<0.05, ** p<0.01 (two-sided t-test). f) Immunoblotting and g) colony formation of NCC432 cells expressing shRNA against non-targeting control (NTC) or SMARCA4 (n=4 biological replicates). Data are presented as mean values+/−SD. *** p<0.001, **** p<0.0001 (two-sided t-test). In vivo tumor formation in h) 786-O parental cells and i) 786-0 PBRM1 KO cells expressing shRNA against non-targeting control (NTC), ARID2 (clone 1) or SMARCA4 (clone 2) (n=10 tumors per group). Data are presented as mean values+/−SEM for tumor growth and mean values+/−SD for tumor weight. **** p<0.0001 (two-sided t-test).
It was previously shown that inhibiting the SMARCA4 ATPAse subunit abolished chromatin accessibility and binding of SMARCA4-dependent transcription factors. To understand whether the activation of pathway requires the ATPase activity of SMARCA4, 786-O and NCC432 cells were treated with SMARCA2/4 ATPase inhibitor. […]

Assay [4] relates to NF-κB pathway (786-O cells). The assay is described as follows: RNA-seq gene set enrichment of direct NF-κB targets after SMARCA2/4 ATPase inhibitor, 786-O. In kind it is cell-based, human. The following applies: 10 μM, 24 hours. Here is the method:
Data are presented as mean values+/−SD. b, c) 786-O parental and PBRM1 KO cells were treated with 10 μM of SMARCA2/4 ATPase inhibitor for 24 hours and transcriptomic changes were evaluated by RNA-seq (n=2 biological replicates). […] P values were calculated by Kolmogorov-Smirnov test and q value was adjusted for multiple hypotheses testing using gene permutation. d) 786-O cells expressing dox inducible shRNA against ARID2 were treated with 1 μg/ml doxycycline for 2 days and the gene expression of NF-κB targets were quantified by RT-qPCR (n=3 technical replicates representative of 2 biological replicates). Data are presented as mean values+/−SD. * p<0.05, ** p<0.01 (two-sided t-test). e) Single cell clones of either PBRM1 or ARID2 knockout were created in 769-P cells. […] P values were calculated by Kolmogorov-Smirnov test and q values were adjusted for multiple hypotheses testing using gene permutation. […]
Total RNA was extracted using the Qiagen RNeasy Mini kit. […] Sequencing was performed on an Illumina HiSeq4000 sequencer with the paired-end 150 bp read option.
RNA-Seq Pathway Analysis RNA-seq data were mapped to hg19 (h117d5) using STAR, with GENCODE annotation (gencode.v19.annotation.gtf) and recommended settings from STAR manual. Gene expression levels were quantified with STAR. […]

Assay [5] deals with RELA occupancy at NF-κB target genes. The assay is described as follows: ChIP-qPCR of RELA occupancy after SMARCA2/4 ATPase inhibitor, 786-O. In kind it is cell-based, human. The following applies: PB1-deficient setting, 24 hours. As for the experimental part: For each protein of interest, approximately 2×10^7 cells were cross-linked with 1% formaldehyde for 10 min at room temperature, and stopped by adding glycine to a final concentration of 0.2M. Chromatin was extracted and sonicated to ~500 bp (Vibra cell, SONICS). The following antibodies were used for chromatin immunoprecipitation: PBRM1 (Bethyl A301-591A Lot: 3-4), SMARCA4 (AbCAM ab110641 Lot: GR3208604-8), ARID2 (Bethyl A302-230A Lot: 2), BRD7 (Bethyl A302-304A Lot: 1), ARID1A (Santa Cruz sc-32761 Lot: #H2217), SMARCC1 (Santa Cruz sc-32763 Lot: #K1617), NFkB p65/RELA (Santa Cruz sc-372 Lot: #J1915; Diagenode C15310256, Lot: 24468; Invitrogen 51-0500, Lot: WG331314), BRD9 (Bethyl A303-781A, Lot2), RNA POL II (Merck Millipore 05-623 Lot: 2958013), H3K27ac (AbCAM ab4729-100 Lot: 741806), H3K14ac (AbCAM ab52946 Lot: GR3252548-5), H3K4me3 (Merck Millipore 07-473 Lot: 2930138), H3K4me1 (AbCAM ab8895 Lot: GR312093-1), H3K27me3 (Millipore 07-449 Lot: JBC1924326), H3K9me3 (Millipore 07-442 Lot: DAM1411287). The total volume of immunoprecipitation was 2 ml and the amount of antibody used was 20 μg. The input DNA was precleared with protein G Dynabeads (LifeTechnologies) for 2 hours at 4 °C and then incubated with antibodies overnight at 4 °C. […] Each library was sequenced to an average depth of 30-50 million reads on HiSeq2000, HiSeq4000 or Novaseq 6000.

Another assay deals with RCC. The following applies: best responder to the combined therapy; cited from earlier work.

Entries after “also recorded” stand apart in the source; their conditions may differ.

Take `CC(C)(C)c1ccc(S(=O)(=O)/C=C/C#N)cc1` [Bay 11-7085]: the “suppressing the expression of NF-κB target genes” value in assay [1] is listed as “not Bay 11-7085 was effective”. In the assay on 786-O cells, the reducing colony formation entry is recorded as “not Bay 11-7085 was effective”. In addition, the “effect on IκBα phosphorylation” value in the assay with IκBα / NF-κB (TNFα-induced vs basal) was “inhibits TNFα-induced but not basal IκBα phosphorylation”. Moreover, in the assay with IκBα / NF-κB (TNFα-induced), the “effect on nuclear translocation of NF-κB” value is “prevents TNFα-induced nuclear translocation of NF-κB”.
Take `O=C(Nc1cc(C(F)F)ns1)Nc1cc(F)ncc1CO` [SMARCA2/4 ATPase inhibitor]: the “downregulation of BCL2A1 and TNF, PB1-deficient vs proficient” value in assay [2] (786-O) and in assay [3] (NCC432) was “greater downregulation in the PB1-deficient setting compared to the proficient setting” throughout. For the same molecule, the “downregulation of NF-κB target genes” value in assay [2] (786-O parental and PB1 KO, 10, 20 and 50 μM, 3 days) was “dose-dependent downregulation of NF-κB target genes”; in assay [3] (NCC432 empty vector or PBRM1, 3 days), “dose-dependent downregulation of NF-κB target genes”. The “sensitivity of PDLIM4 and APOL3 expression” value in assay [2] (both PB1-proficient and deficient setting) is recorded as “exquisitely sensitive”. Besides, the “gene set enrichment of direct NF-κB targets, PB1-deficient vs parental” value in assay [4] is recorded as “greater effect of NF-κB downregulation in PB1-deficient cells compared to parental 786-O cells; also recorded: greater downregulation of NF-κB pathway in PBRM1-deficient cells compared to parental 786-O cells”. Moreover, in assay [5], the “regions probed with significantly decreased RELA occupancy” value is recorded as 5/6.
Consider bevacizumab: bevacizumab therapy, for which the prior therapy outcome in the assay on RCC is on record as “failed”.

The values above are taken from patent US20260357349A1, “METHODS OF IDENTIFYING AND TREATING CANCER” (Agency for Science, Technology and Research, priority 2022, published 2026).
